Each compound was assayed against T1, CCR2 (Homo sapiens, UniProt P41597) (assay: CCR2 receptor membrane binding assay ([125I]MCP-1, THP-1 membranes, SPA beads)). Conditions: THP-1 cell membranes, [125I]MCP-1 displacement, bound radioactivity after 8 h; read-out: hKi.
T1 construct: Membranes were prepared from THP-1 cells; endogenous in cells; host or cells: THP-1 (human acute monocytic leukaemia cells), membrane preparation
Description: The above exemplary substances have been tested for binding to CCR2 using a binding assay as outlined herein below:
THP-1 cells (human acute monocytic leukaemia cells) were cultured under standardized conditions at 37° C. and 5% CO2 in a humidified incubator. THP-1 cells were cultivated in RPMI 1640 medium (Gibco 21875) containing 1% MEM-NEAA (Gibso 11140) 2 mM L-glutamine, 1.5 g/L sodium bicarbonate, 4.5 g/L glucose, 10 mM HEPES and 1.0 mM sodium pyruvate, 90%; 10% fetal calf serum (FCS Gibco 10500-064).
Membranes were prepared from THP-1 cells. THP-1 cells were centrifuged at 300×g at 4° C. for 10 min. The cell pellet was resuspended in Phosphate Buffer Saline (PBS, including 10 μM Pefabloc and a protease inhibitor mix ‘complete’, Boehringer Mannheim (1 tablet/50 ml)), to a concentration of […]. The membrane preparation was performed by disrupting the cells by nitrogen […] (at 50 bar, for 1 h) in a “Nitrogen Bombe” (Parr Instrument). Cell debris was removed by centrifugation (800×g at 4° C., 1 min). The supernatant was centrifuged at 80000×g, 4° C. for 30 min to sediment the cell membranes. Usually 50 mg of protein (Bradford assay) were yielded from 1×10E9 cells. The membranes were resuspended in 25 mM HEPES, 25 mM MgCl2, 1 mM CaCl2, 10% Glycerine for storage in aliquots at −80° C. in 25 mM HEPES, 25 mM MgCl2, 1 mM CaCl2, 10% Glycerine and stored at −80° C.
Perkin Elmer NEX 332 Jod 125 MCP-1, Stock: 2200 Ci/mmol solved in 2000 μl assay buffer, stored at −20° C. THP-1 membrane were adjusted with 25 mM HEPES, pH 7.2; 5 mM MgCl2; 0.5 mM CaCl2; 0.2% BSA assay buffer to a concentration of 2.5 μg/15 μl. Amersham Biosciences PVT-WGA Beads (RPNQ0001) were adjusted with assay buffer to a concentration of 0.24 mg/30 μl. For preparation of the membrane-bead-suspension membranes and beads were incubated for 30 min at RT under rotation (60 rpm) with a ratio of 1:2. Test compounds dissolved in 100% DMSO to a concentration of 10 mM and are further diluted with 100% DMSO to 1 mM. All additional compound dilutions were obtained with assay buffer, final 1% DMSO. Compounds, membrane-bead-suspension and [125I]MCP-1 (ca. 25000 cpm/10 μl) were incubated. Bound radioactivity was determined by scintillation counter after 8 h. Determination of affinity of test compounds (dissociation constant hKi) is calculated by iterative fitting of experimental data using the “easy sys” program, which is based on law of mass action (Schittkowski K. (1994), Numerische Mathematik, Vol. 68, 129-142).

T1 sequence (P41597 whole entry): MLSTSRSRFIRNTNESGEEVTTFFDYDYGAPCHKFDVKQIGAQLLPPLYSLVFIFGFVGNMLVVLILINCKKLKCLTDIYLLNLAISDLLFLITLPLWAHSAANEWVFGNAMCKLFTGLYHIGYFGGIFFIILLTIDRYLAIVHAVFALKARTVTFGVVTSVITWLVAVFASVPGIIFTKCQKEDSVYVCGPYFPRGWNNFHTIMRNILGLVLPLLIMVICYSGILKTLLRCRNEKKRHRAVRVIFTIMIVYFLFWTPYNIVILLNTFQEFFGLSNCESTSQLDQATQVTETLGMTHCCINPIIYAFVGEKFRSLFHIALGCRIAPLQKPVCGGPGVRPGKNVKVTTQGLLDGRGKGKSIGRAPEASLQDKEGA

Row | Ki | SMILES
1 | 21 nM | COC1COCCC1NC1CCN(C(=O)c2ncnc(OCc3ccc(C(C)(C)C)cc3)c2C)CC1 (stereo not shown) [Example 2]
2 | 16 nM | CO[C@@H]1COCC[C@@H]1NC1CCN(C(=O)c2nc(C(F)(F)F)nc(OCc3ccc(Cl)c(Cl)c3)c2C)CC1 [Example 3n]
3 | 278 nM | COC1COCCC1NC1CCN(C(=O)c2ncnc(Oc3cccc(C(F)(F)F)c3)c2C)CC1 (stereo not shown) [Example 1]
4 | 10 nM | COc1nc(OCc2ccc(Cl)c(Cl)c2)c(C)c(C(=O)N2CCC(N[C@H]3CCOC[C@H]3OC)CC2)n1 [Example 3m]
5 | 2 nM | COc1nc(OCc2ccc(C(C)(C)C)cc2)c(C)c(C(=O)N2CCC(N[C@H]3CCOC[C@H]3OC)CC2)n1 [Example 3g]
6 | 18 nM | CO[C@@H]1COCC[C@@H]1NC1CCN(C(=O)c2nc(C(F)(F)F)nc(OCc3cc(Cl)cc(Cl)c3)c2C)CC1 [Example 3o]
7 | 14 nM | COc1nc(OCc2ccc(C(F)(F)F)cc2)c(C)c(C(=O)N2CCC(N[C@@H]3CCOC[C@@H]3OC)CC2)n1 [Example 3c]
8 | 18 nM | COC1COCCC1NC1CCN(C(=O)c2ncnc(OCc3cc(Cl)cc(Cl)c3)c2C)CC1 (stereo not shown) [Example 2c]
9 | 12 nM | CO[C@@H]1COCC[C@@H]1NC1CCN(C(=O)c2ncnc(OCc3ccc(Cl)c(Cl)c3)c2C)CC1 [Example 2d]
10 | 45 nM | CO[C@H]1COCC[C@H]1NC1CCN(C(=O)c2ncnc(OC[C@H]3CCC[C@@H](c4ccc(OC(F)(F)F)cc4)O3)c2C)CC1 [Example 3]
11 | 9 nM | CO[C@H]1COCC[C@H]1NC1CCN(C(=O)c2nc(C(F)(F)F)nc(OCc3ccc(C(C)(C)C)cc3)c2C)CC1 [Example 3e]
12 | 18 nM | COc1nc(OCc2cccc(C(F)(F)F)c2)c(C)c(C(=O)N2CCC(N[C@H]3CCOC[C@H]3OC)CC2)n1 [Example 3h]
13 | 4 nM | COc1nc(OCc2ccc(C(C)(C)C)cc2)c(C)c(C(=O)N2CCC(N[C@@H]3CCOC[C@@H]3OC)CC2)n1 [Example 3i]
14 | 8 nM | COc1nc(OCc2ccc(C(F)(F)F)c(Cl)c2)c(C)c(C(=O)N2CCC(N[C@@H]3CCOC[C@@H]3OC)CC2)n1 [Example 3k]
15 | 7 nM | CO[C@@H]1COCC[C@@H]1NC1CCN(C(=O)c2nc(C(F)(F)F)nc(OCc3ccc(C(C)(C)C)cc3)c2C)CC1 [Example 3f]
16 | 23 nM | CO[C@@H]1COCC[C@@H]1NC1CCN(C(=O)c2nccc(OCc3ccc(C(C)(C)C)cc3)c2C)CC1 [Example 3a]
17 | 108 nM | CO[C@H]1COCC[C@H]1NC1CCN(C(=O)c2nccc(OCc3ccc(C(C)(C)C)cc3)c2C)CC1 [Example 3b]
18 | 4 nM | COc1nc(OCc2ccc(C(F)(F)F)cc2)c(C)c(C(=O)N2CCC(N[C@H]3CCOC[C@H]3OC)CC2)n1 [Example 3d]
19 | 8 nM | COc1nc(OCc2ccc(Cl)c(F)c2)c(C)c(C(=O)N2CCC(N[C@H]3CCOC[C@H]3OC)CC2)n1 [Example 3l]
20 | 8 nM | COC1COCCC1NC1CCN(C(=O)c2ncnc(OCc3ccc(C(F)(F)F)c(Cl)c3)c2C)CC1 (stereo not shown) [Example 2b]
21 | 8 nM | COC1COCCC1NC1CCN(C(=O)c2ncnc(OCc3ccc(Cl)c(Cl)c3)c2C)CC1 (stereo not shown) [Example 2a]
22 | 3 nM | COc1nc(OCc2ccc(C(F)(F)F)c(Cl)c2)c(C)c(C(=O)N2CCC(N[C@H]3CCOC[C@H]3OC)CC2)n1 [Example 3j]
